Data: article PMC10972148, “Cloning and Characterization of a Novel N-Acetyl-D-galactosamine-4-O-sulfate Sulfatase, SulA1, from a Marine Arthrobacter Strain” (Marine Drugs, 2024)

Test system: T1, SulA1
T1 construct: forward primer encodes MVSSSPA (translated here)
Assay: GalNAc release by HPAEC-PAD, Michaelis-Menten nonlinear fit
Format: biochemical, Arthrobacter sp. MAT3885
Conditions: pH 5.5, 40 °C, 30 min, 0-20 mM substrate; 100 mM acetate buffer; unit not printed beside the value, taken from the mM axis of Figure 9B

CC(=O)N[C@H]1C(O)O[C@H](CO)[C@H](OS(=O)(=O)O)[C@@H]1O (stereo partly drawn) [GalNAc4S, N-Acetyl-D-galactosamine-4-sulfate]
Km: 6.94 ± 0.053 mM
